What was measured:
[1] = tested on: MRC-5 cells; experiment: MTT cell viability assay on non-cancerous MRC-5 fibroblasts; type: cell-based; conditions: for Mean values (%) of primary growth inhibitory screen (viability in %), MRC-5 / IC50: 72 hours, MTT; for IC50: ± SD
Protocol: (§1) HeLa, MCF-7 and MDA-MB-231 cells were obtained from Sigma-Aldrich and maintained as reported previously. MRC-5, PC-3, DU 145 cells were purchased from American Type Culture Collection (ATCC, Manassas, VA, USA). PC-3 and DU 145 were maintained in RPMI medium (Sigma-Aldrich) whereas MRC-5 cells were maintained in DMEM medium (Sigma-Aldrich). All media were complemented with 10% Fetal bovine serum (FBS, Sigma-Aldrich) 2 mM L-glutamine, 0.01% streptomycin and 0.005% ampicillin (Sigma-Aldrich). Cells were cultured under standard conditions in a 37 °C incubator containing 5% CO2 in 95% humidity.
(§2) Each test compound was dissolved in cell culture grade DMSO (Molar Chemicals, Halásztelek, Hungary) in a final concentration of […]. Antiproliferative action of the synthesized steroids was investigated by MTT assay. An amount of 5000 cells/well were seeded into 96 well plates. Twenty-four hours post seeding, all cell lines were treated with each compound in 10 and 30 μM concentrations for 72 hours. […] After 72 hours, cells were washed with PBS and incubated with culture medium containing 0.5 mg/mL MTT (3-(4, 5-dimethylthiazolyl-2)-2,5-diphenyltetrazolium bromide) reagent (SERVA, GmbH, Heidelberg, Germany) for an hour at 37 °C. Formazan crystals were solubilized in DMSO and extinction was measured at 570 nm using a Synergy HTX plate reader (BioTech-Hungary, Budapest, Hungary). MTT assays were performed at least three times using four independent biological replicates. Data were normalized to solvent controls and the graphical representation of the obtained data as well as the calculation of IC50 values were carried out by GraphPad Prism 7 software (GraphPad Software; San Diego, CA, USA).

[2] = tested on: DU 145 cells; experiment: MTT cell viability assay on DU 145 prostate cancer cells; type: cell-based, human; conditions: for IC50: ± SD
Protocol: as §1, §2

[3] = tested on: PC-3 cells; experiment: MTT cell viability assay on PC-3 prostate cancer cells; type: cell-based, human; conditions: for Mean values (%) of primary growth inhibitory screen (viability in %), PC-3 / IC50: 72 hours, MTT; for antiproliferative potency against PC-3 prostate cancer cells compared to MRC-5 non-cancerous fibroblasts: primary screen; for IC50: ± SD
Protocol: as §1, §2

[4] = tested on: HeLa cells; experiment: MTT cell viability assay on HeLa cervical cancer cells; type: cell-based, human; conditions: 72 hours; for IC50: ± SD
Protocol: as §1, §2

[5] = tested on: MCF-7 cells; experiment: MTT cell viability assay on MCF-7 breast cancer cells; type: cell-based, human; conditions: for IC50: ± SD
Protocol: as §1, §2

[6] = tested on: MDA-MB-231 cells; experiment: MTT cell viability assay on MDA-MB-231 breast cancer cells; type: cell-based, human; conditions: for IC50: ± SD
Protocol: as §1, §2

[7] = tested on: PC-3 cells; experiment: Annexin V/PI apoptosis detection assay (flow cytometry); type: cell-based, human; conditions: PC-3, 5 µM, 48-hour treatment
Protocol: PC-3 cells were seeded at 2 × 10^6 cells/well density in 6-well plates. On the following day cells were treated with 5 µM of either compound 4e or 4j or with 200 µM of cisplatin (Accord Healthcare Ltd., Middlesex, UK). After 48-hour treatment, cells were collected and a Dead Cell Apoptosis Kit containing AnnexinV-FITC and propidium iodide (Life Technologies-Hungary, Budapest, Hungary) was used according to the manufacturer’s recommendation. Fluorescence intensities of at least 10,000 cells/sample were measured by FACSCalibur™ (BD Biosciences, Franklin Lakes, CA, USA) and data were analyzed by FlowJo V10 software (BD Biosciences, Franklin Lakes, NJ, USA). Experiments were repeated three times using triplicates.

[8] = tested on: caspase 3 mRNA in PC-3 cells; experiment: RT-qPCR of caspase 3 mRNA; type: cell-based, human; conditions: PC-3, 48 h; 4e, 4j 5 µM; cisplatin 200 µM; GAPDH reference
Protocol: (§3) PC-3 cells were seeded at 2 × 10^6 cells/well density in 6 well plates. On the following day cells were treated with 5 µM of either compound 4e or 4j or with 200 µM of cisplatin. Cells were collected 48-hours post-treatment and total cellular RNA was isolated using RNeasy® Mini Kit (QIAGEN, Hilden, Germany) according to the manufacturer’s recommendation. RNA (2 µg) was reverse transcribed (TaqMan® Reverse Transcription kit, Applied Biosystems, Foster City, CA, USA) in 50 µL total volume. PCR reactions were performed on PicoReal™ Real-time PCR (Thermo Scientific, Walthan, MA, USA) using SYBRGreen qPCR Master Mix (Thermo Scientific) with an input of 1 µL cDNA. Each primer (Table 3) was used at 200 nM concentration. Relative transcript levels were determined by the ΔΔCt analysis using GAPDH as reference gene. Experiments were repeated three times with three biological replicates.

[9] = tested on: Bax mRNA in PC-3 cells; experiment: RT-qPCR of Bax mRNA; type: cell-based, human; conditions: PC-3, 48 h; 4e, 4j 5 µM; cisplatin 200 µM; GAPDH reference
Protocol: as §3

| Compound | Mean values (%) of primary growth inhibitory screen (viability in %), MRC-5 ([1]; 10 µM) [%] | Mean values (%) of primary growth inhibitory screen (viability in %), MRC-5 ([1]; 30 µM) [%] | Mean values (%) of primary growth inhibitory screen (viability in %), DU 145 ([2]; 10 µM, 72 hours) [%] | Mean values (%) of primary growth inhibitory screen (viability in %), DU 145 ([2]; 30 µM, 72 hours) [%] | Mean values (%) of primary growth inhibitory screen (viability in %), PC-3 ([3]; 10 µM) [%] | antiproliferative potency against PC-3 prostate cancer cells compared to MRC-5 non-cancerous fibroblasts ([3]; 10 µM) | Mean values (%) of primary growth inhibitory screen (viability in %), PC-3 ([3]; 30 µM) [%] | Mean values (%) of primary growth inhibitory screen (viability in %), HeLa ([4]; 10 µM) [%] | Mean values (%) of primary growth inhibitory screen (viability in %), HeLa ([4]; 30 µM) [%] | Mean values (%) of primary growth inhibitory screen (viability in %), MCF-7 ([5]; 10 µM, 72 hours) [%] | Mean values (%) of primary growth inhibitory screen (viability in %), MCF-7 ([5]; 30 µM, 72 hours) [%] | Mean values (%) of primary growth inhibitory screen (viability in %), MDA-MB-231 ([6]; 10 µM, 72 hours) [%] | Mean values (%) of primary growth inhibitory screen (viability in %), MDA-MB-231 ([6]; 30 µM, 72 hours) [%] | IC50 [1] [µM] | IC50 ([2]; 72 hours) [µM] | IC50 [3] [µM] | IC50 [4] [µM] | IC50 ([5]; 72 hours) [µM] | IC50 ([6]; 72 hours) [µM] | percentage of annexin V-positive cells (Q2 + Q3) [7] [%] | also measured |
| --- | --- | --- | --- | --- | --- | --- | --- | --- | --- | --- | --- | --- | --- | --- | --- | --- | --- | --- | --- | --- | --- |
| Cc1c2c(nn1-c1ccccc1)CC1CCC3C4CCC(O)C4(C)CCC3C1(C)C2 (stereo not drawn) [4a, 17β-Hydroxy-1′-phenyl-5′-methylpyrazolo[3′,4′:3,2]-5α-androstane] | 68.3 | 1.2 | 67.3 | 1.5 | 36.8 | significantly higher | 3.2 | 49.6 | 46.7 | 57.1 | 5.5 | 75.0 | 32.1 |  |  |  |  |  |  |  | IC50 ([1]; Homo sapiens, MRC5): 23.7 ± 2.3 µM; IC50 ([2]; Homo sapiens, DU-145, 72 hours): 9.2 ± 1.2 µM; IC50 ([3]; Homo sapiens, PC-3): 5.6 ± 1.2 µM; IC50 ([4]; Homo sapiens, HeLa): 16.9 ± 3.7 µM; IC50 ([5]; Homo sapiens, MCF7, 72 hours): 12.9 ± 0.1 µM; IC50 ([6]; Homo sapiens, MDA-MB-231, 72 hours): 15.3 ± 3.4 µM; melting point: 241 to 245 °C |
| COc1ccc(-n2nc3c(c2C)C[C@@]2(C)[C@@H](CC[C@@H]4[C@@H]2CC[C@]2(C)[C@@H](O)CC[C@@H]42)C3)cc1 [4e, 17β-Hydroxy-1′-(4″-methoxyphenyl)-5′-methylpyrazolo[3′,4′:3,2]-5α-androstane] | 71.2 | 28.8 | 23.3 | 5.5 | 28.4 |  | 10.8 | 31.7 | 15.1 | 20.9 | 14.0 | 35.2 | 13.6 | 8.6 ± 1.3 | 3.6 ± 1.2 | 4.2 ± 1.1 | 8.5 ± 0.6 | 5.5 ± 0.6 | 6.6 ± 0.9 | 33.96 | specificity in cancer cell toxicity (cancer cell lines vs MRC-5) ([1]; primary screen, manifested already at 10 µM): utmost specificity; caspase 3 mRNA expression level compared to untreated control [8]: significantly increased; Bax mRNA expression level compared to untreated control [9]: significantly increased |
| Cc1c2c(nn1-c1ccc([N+](=O)[O-])cc1)CC1CCC3C4CCC(O)C4(C)CCC3C1(C)C2 (stereo not drawn) [4j, 17β-Hydroxy-1′-(4″-nitrophenyl)-5′-methylpyrazolo[3′,4′:3,2]-5α-androstane] | 99.1 | 99.8 | 82.8 | 60.4 | 38.2 | significantly higher | 41.6 | 60.5 | 64.6 | 55.8 | 49.6 | 83.8 | 80.6 | > 30 | 19.7 ± 1 | 5.6 ± 1.1 | > 30 | 18.2 ± 3.9 | > 30 | 37.89 | antiproliferative potency against PC-3 prostate cancer cells compared to MRC-5 non-cancerous fibroblasts ([3]; 30 µM): significantly higher; caspase 3 mRNA expression level compared to untreated control [8]: significantly increased; Bax mRNA expression level compared to untreated control [9]: significantly increased |

From article PMC6539495, “Anti-Cancer Activity of Novel Dihydrotestosterone-Derived Ring A-Condensed Pyrazoles on Androgen Non-Responsive Prostate Cancer Cell Lines” (International Journal of Molecular Sciences, 2019)
